The subject of one data set is MV4-11 AML SQ xenografts. It is filed as in vivo, mouse. Conditions: MV4-11 xenograft, 5 mg/kg or 10 mg/kg orally once daily for 20 days. As to the method:
Human MV4-11 acute myeloid leukemia (AML) cancer cells (5×10^6) that have FLT-ITD mutations were resuspended in serum-free RPMI1640 medium and Matrigel (ration of 1:1) and subcutaneously injected into the flank of 5-6 weeks old female NOD/SCID/IL-2rg(ko)(NSG). When palpable tumor sizes reached at approximately 50 mm^3, mice were divided into three groups (vehicle=9, 5 mg/kg dose group=8, 10 dose mg/kg group=8). Then, S enantiomer was orally administered at 5 mg/kg or 10 mg/kg with vehicle (10% DMSO+30% Solutol+60% saline), once daily for 20 days. Tumor volumes were calculated by the formula 1/2a×b^2, where a is the long diameter, and b is the short diameter. Tumor volumes correlate with tumor weights. The statistical significance of group differences was analyzed using a Student's t-test with the two-tailed distribution. P values less than 0.05 were considered statistically significant.

A further data set has as its system MOLM-13 AML cells. The data set is described as follows: MTS cell viability assay. The format is cell-based. As to the method: IC50 Determinations for Ovarian, Liver, Pancreatic, CML, AML Cancer Cell Lines (See e.g. FIGS. 4, 6A-6C, 21, 22A, 22B, 23, 24A-24C, 25A, 25B and 34): MTS assays were performed for cell viability. SKOV3 ovarian cancer, Huh-7 hepatocellular carcinoma, MIA-PaCa2 pancreatic cancer, KCL-22 CML, T315I mutant KCL-22 CML, MOLM-13 AML and MV4-11 AML cells were seeded in 96-well plates (5000 cells/well for solid tumors, 10000 cells/well for blood tumors), incubated overnight at 37° C. in 5% CO2, and exposed to racemic ETP69 or S enantiomer in a dose-dependent manner for 48 h. Dimethyl sulfoxide (DMSO) was used as the vehicle control. Viable cell numbers were determined by tetrazolium conversion to its formazan dye and absorbance was measured at 490 nm using an automated ELISA plate reader. Each experiment was performed in quadruplicate.

For the compound `CN1C(=O)[C@@]23C[C@](C)(C#N)[C@H](c4ccc5c(c4)OCO5)N2C(=O)[C@]1(C)SS3` (single isomer, unassigned) [ETP417], in the data set with MV4-11 AML SQ xenografts, the toxicity symptoms entry was “no observable toxicity symptoms”.
Take `CN1C(=O)[C@@]23C[C@](C)(C#N)[C@H](c4ccc5c(c4)OCO5)N2C(=O)[C@]1(C)SS3` [(S) enantiomer of ETP69, (3S,6S,7S,8aS)-6-(benzo[d][1,3]dioxol-5-yl)-2,3,7-trimethyl-1,4-dioxohexahydro-6H-3,8a-epidithiopyrrolo[1,2-a]pyrazine-7-carbonitrile]: the “increase in inhibitory capacity when compared to the (R) enantiomer” value in the data set with MOLM-13 AML cells is given as ~4 fold.

The record behind these values is patent US9856273B2, “ETP derivatives” (priority 2012, dated 2018).
